Test results from patent US5294611A, “Angiotensin II receptor blocking 2,3,6 substituted quinazolinones” (American Cyanamid Company, priority 1993, dated 1994).
Read-outs that look alike come from different tables or passages of the source.

Tested on: Angiotensin II (AII) vasopressor response
Test: AII Challenge: antagonism of angiotensin II vasopressor response in conscious spontaneously hypertensive rats
Format: in vivo, rat (male okamoto-Aoki SHR)
Conditions: for inhibition in vivo at 3 mg/kg: Rattus norvegicus, iv, read-out: Inhibition
How it was run: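 Read-out is the systolic pressure increase (mmHg) to i.v. angiotensin II, 0.05 and 0.1 ug/kg, compared pre- and post-dose in restrained, conscious spontaneously hypertensive male rats. Compounds administered orally, i.p. or i.v.; arterial cannula inserted under local anaesthesia.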

## CCCCc1nc2ccc([C@H]3[C@@H]4C5CCC(C5)[C@@H]4ON3C)cc2c(=O)n1Cc1ccc(-c2ccccc2-c2nnn[nH]2)cc1 (stereo partly drawn) [Example 51]
0.5 h, SHR n=2, 3 mg/kg I.V., AII 0.05 mcg/kg IV, 30 min post dose
  inhibition in vivo at 3 mg/kg: 89%
0.5 h, SHR n=2, 3 mg/kg I.V., AII 0.1 mcg/kg IV, 30 min post dose
  inhibition in vivo at 3 mg/kg: 87%
1 h, SHR n=2, 3 mg/kg I.V., AII 0.05 mcg/kg IV, 60 min post dose
  inhibition in vivo at 3 mg/kg: 63%
1 h
  inhibition in vivo at 3 mg/kg: 82%
2 h, SHR n=2, 3 mg/kg I.V., AII 0.05 mcg/kg IV, 120 min post dose
  inhibition in vivo at 3 mg/kg: 83%
2 h, SHR n=2, 3 mg/kg I.V., AII 0.1 mcg/kg IV, 120 min post dose
  inhibition in vivo at 3 mg/kg: 75%
3 h, SHR n=2, 3 mg/kg I.V., AII 0.05 mcg/kg IV, 180 min post dose
  inhibition in vivo at 3 mg/kg: 67%
3 h, SHR n=2, 3 mg/kg I.V., AII 0.1 mcg/kg IV, 180 min post dose
  inhibition in vivo at 3 mg/kg: 63%
[…], SHR n=2, 3 mg/kg I.V., AII 0.05 mcg/kg IV, 90 min post dose
  inhibition in vivo at 3 mg/kg: 78%
[…], SHR n=2, 3 mg/kg I.V., AII 0.1 mcg/kg IV, 90 min post dose
  inhibition in vivo at 3 mg/kg: 80%
SHR n=2, 3 mg/kg I.V., AII 0.05 mcg/kg IV, 30 min post dose
  Average Change: 5 mmHg
SHR n=2, 3 mg/kg I.V., AII 0.05 mcg/kg IV, 60 min post dose
  Average Change: 16.5 mmHg
SHR n=2, 3 mg/kg I.V., AII 0.05 mcg/kg IV, 90 min post dose
  Average Change: 10 mmHg
SHR n=2, 3 mg/kg I.V., AII 0.05 mcg/kg IV, 120 min post dose
  Average Change: 7.5 mmHg
SHR n=2, 3 mg/kg I.V., AII 0.05 mcg/kg IV, 180 min post dose
  Average Change: 15 mmHg
SHR n=2, 3 mg/kg I.V., AII 0.1 mcg/kg IV, 30 min post dose
  Average Change: 8 mmHg
SHR n=2, 3 mg/kg I.V., AII 0.1 mcg/kg IV, 60 min post dose
  Average Change: 11 mmHg
SHR n=2, 3 mg/kg I.V., AII 0.1 mcg/kg IV, 90 min post dose
  Average Change: 12.5 mmHg
SHR n=2, 3 mg/kg I.V., AII 0.1 mcg/kg IV, 120 min post dose
  Average Change: 15.5 mmHg
SHR n=2, 3 mg/kg I.V., AII 0.1 mcg/kg IV, 180 min post dose
  Average Change: 22.5 mmHg
Single SHR, 3 mg/kg I.V., AII 0.05 mcg/kg IV, 180 min post dose
  Change: 15 mmHg
